Marks after values point to notes of the source that are not given here.
Tests used:
[1] = tested on: Vitamin D-Deficient Rats on a Low-Calcium Diet; test: Bone calcium mobilization (serum Ca) in vitamin D-deficient rats on a low-calcium diet (Tables 4, 6); type: in vivo, rat
[2] = tested on: Vitamin D-Deficient Rats on a Low-Calcium Diet; test: Intestinal calcium transport in vitamin D-deficient rats on a low-calcium diet (Tables 4, 6); type: in vivo, rat
[3] = molecular target: T1, porcine intestinal vitamin D receptor (Sus scrofa, UniProt A3RGC1); test: Competitive binding to the porcine intestinal vitamin D receptor; details: for EC50: concentration for 50% displacement of radiolabeled 1α,25-(OH)2D3, read-out: VDR Binding ED50; for VDR Binding ratio: ratio of analog ED50 to ED50 for 1α,25-(OH)2D3
T1 construct: from tissue; host or cells: porcine intestine
T1 sequence (A3RGC1 1-427): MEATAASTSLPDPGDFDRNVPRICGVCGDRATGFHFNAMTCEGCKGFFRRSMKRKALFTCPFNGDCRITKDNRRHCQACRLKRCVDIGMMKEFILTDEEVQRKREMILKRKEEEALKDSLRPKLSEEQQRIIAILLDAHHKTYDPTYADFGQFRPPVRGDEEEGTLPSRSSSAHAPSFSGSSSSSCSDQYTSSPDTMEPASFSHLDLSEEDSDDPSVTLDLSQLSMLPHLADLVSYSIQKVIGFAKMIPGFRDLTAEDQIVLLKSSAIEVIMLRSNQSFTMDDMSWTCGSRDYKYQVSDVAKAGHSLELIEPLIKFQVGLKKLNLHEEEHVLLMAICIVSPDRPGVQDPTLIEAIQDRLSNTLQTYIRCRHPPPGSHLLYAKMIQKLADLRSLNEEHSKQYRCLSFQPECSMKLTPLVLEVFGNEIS

HL-60 cells = test: Differentiation of HL-60 promyelocytes to monocytes (NBT reduction); type: cell-based; details: for HL-60 Differentiation Activity ratio: ratio of analog ED50 to ED50 for 1α,25-(OH)2D3; for HL-60 Differentiation ED50: concentration inducing 50% maturation, NBT reduction; for induction of differentiation of HL-60 cells to the monocyte, in words: FIG. 2
vitamin D-deficient rats [4] = test: Intestinal calcium transport after a single dose (Table 2); type: in vivo, rat; details: single intrajugular dose 650 pmol, 24 h later, mean±SEM
Method: (§1) Male Holtzman strain weanling rats were obtained from the Sprague Dawley Co. (Indianapolis, Ind.) and fed the 0.47% calcium, 0.3% phosphorus diet described by Suda et al. (J. Nutr. 100, 1049-1052, 1970) for 1 week and then fed the same diet containing 0.02% calcium and 0.3% phosphorus for 2 additional weeks. At this point, they received a single intrajugular injection of the indicated dose dissolved in 0.1 ml of 95% propylene glycol/5% ethanol. Twenty-four hours later they were sacrificed and intestinal calcium transport and serum calcium were determined as described in Table 1. The dose of the compounds was 650 pmol and there were 5 animals per group. The data are expressed as mean±SEM.

vitamin D-deficient rats [5] = test: Serum calcium (bone calcium mobilization) after a single dose (Table 2); type: in vivo, rat; details: single intrajugular dose 650 pmol, 24 h later, mean±SEM
Method: as §1

vitamin D-deficient rats [6] = test: Intestinal calcium transport (everted sac), chronic doses for 7 days (Table 1); type: in vivo, rat; details: for Intestinal Calcium Transport (S/M): intraperitoneal, 24 h after last dose, mean±SEM; for intestinal calcium transport, in words: chronic 7 days, 130 or 260 pmol/day, 1,25-(OH)2D3 at 260 pmol/day only
Method: (§2) Male weanling rats were obtained from Sprague Dawley Co. (Indianapolis, Ind.) and fed a 0.47% calcium, 0.3% phosphorus vitamin D-deficient diet for 1 week and then given the same diet containing 0.02% calcium, 0.3% phosphorus for 2 weeks. During the last week they were given the indicated dose of compound by intraperitoneal injection in 0.1 ml 95% propylene glycol and 5% ethanol each day for 7 days. The control animals received only the 0.1 ml of 95% propylene glycol, 5% ethanol. Twenty-four hours after the last dose, the rats were sacrificed and intestinal calcium transport was determined by everted sac technique as previously described and serum calcium determined by atomic absorption spectrometry on a model 3110 Perkin Elmer instrument (Norwalk, Conn.). There were 5 rats per group and the values represent mean±SEM.

vitamin D-deficient rats [7] = test: Serum calcium (bone calcium mobilization), chronic doses for 7 days (Table 1); type: in vivo, rat; details: for Serum Calcium: intraperitoneal, 24 h after last dose, mean±SEM; for bone calcium mobilization, in words: 130 and 260 pmol/day
Method: as §2

[8] = 15 pmol daily for 7 days i.p., Table 4 and Table 6 panel 1
[9] = 32 pmol daily for 7 days i.p., Table 4 and Table 6 panel 1
[10] = 65 pmol daily for 7 days i.p., Table 6 panel 2
[11] = 260 pmol daily for 7 days i.p., Table 6 panel 2
[12] = 260 pmol daily for 7 days i.p., Table 4 and Table 6 panel 1

| Structure (SMILES) | EC50 [3] [nM] | VDR Binding ratio [3] | HL-60 Differentiation Activity ratio (HL-60 cells) | Serum Ca (mean ± SEM) [1, 11] | Ca Transport S/M (mean ± SEM) [2, 11] | HL-60 Differentiation ED50 (HL-60 cells) [nM] | Intestinal Calcium Transport (S/M) (vitamin D-deficient rats [4]) | Serum Calcium (vitamin D-deficient rats [5]) [mg/100 ml] | Intestinal Calcium Transport (S/M) (vitamin D-deficient rats [6]; 260 pmol/day for 7 days) | intestinal calcium transport, in words (vitamin D-deficient rats [6]) | Serum Calcium (vitamin D-deficient rats [7]; 130 pmol/day for 7 days) [mg/100 ml] | Serum Calcium (vitamin D-deficient rats [7]; 260 pmol/day for 7 days) [mg/100 ml] | further results |
| --- | --- | --- | --- | --- | --- | --- | --- | --- | --- | --- | --- | --- | --- |
| C=C1[C@H](O)CC(=C/C=C2\CCC[C@@]3(C)C2CCC3[C@@H](C)CCCC(O)(CC)CC)C[C@H]1O (stereo partly drawn) [Compound 35, 20(S)-1α,25-Dihydroxy-2-methylene-26,27-dihomo-19-norvitamin D3] | 4.3 | 4.9 | 0.01 | – | – | – | – | – | – | – | – | – | Serum Ca (mean ± SEM) [1, 8]: 5.3 ± 0.1^d^^1; Serum Ca (mean ± SEM) [1, 9]: 7.3 ± 0.4^d^^2; Ca Transport S/M (mean ± SEM) [2, 8]: 4.0 ± 0.4^d^^1 S/M; Ca Transport S/M (mean ± SEM) [2, 9]: 8.2 ± 0.6^d^^2 S/M |
| C=C1[C@H](O)CC(=C/C=C2\CCC[C@@]3(C)C2CCC3[C@@H](C)CCCC2(OC)CCCC2)C[C@H]1O (stereo partly drawn) [Compound 46, 20(S)-26,27-dimethylene-1α-hydroxy-25-methoxy-2-methylene-19-norvitamin D3] | 15 | 17 | 1.1 | 10.8 ± 0.3^e^^2 | 4.3 ± 0.5^e^^2 S/M | 4.3 | – | – | – | – | – | – | Serum Ca (mean ± SEM) [1, 10]: 5.7 ± 0.1^e^^1; Ca Transport S/M (mean ± SEM) [2, 10]: 5.5 ± 0.8^e^^1 S/M |
| C=C1[C@H](O)CC(=C/C=C2\CCC[C@@]3(C)C2CCC3[C@@H](C)CCC=C2CCCC2)C[C@H]1O (stereo partly drawn) [Compound 45, 20(S)-26,27-dimethylene-1α-hydroxy-2-methylene-24-dehydro-19-norvitamin D3] | 29 | 33 | 1.0 | 10.8 ± 0.3^d^^2 | 4.3 ± 0.5^d^^2 S/M | 4.1 | – | – | – | – | – | – | Serum Ca (mean ± SEM) [1, 10]: 5.7 ± 0.1^d^^1; Ca Transport S/M (mean ± SEM) [2, 10]: 5.5 ± 0.8^d^^1 S/M |
| C=C1[C@H](O)CC(=C/C=C2\CCC[C@]3(C)[C@@H]([C@H](C)CCCC(C)(C)O)CC[C@@H]23)C[C@H]1O [2-Methylene-19-Nor-1,25-(OH)2D3, 1α,25-dihydroxy-2-methylene-19-nor-vitamin D3] | – | – | – | – | – | – | 5.3 ± 0.5 | 6.4 ± 0.1 | 4.9 ± 0.6 | no intestinal calcium transport activity | 9.9 ± 0.2 | 9.6 ± 0.3 | induction of differentiation of HL-60 cells to the monocyte, in words (HL-60 cells): activity similar to 1,25-(OH)2D3; Intestinal Calcium Transport (S/M) (vitamin D-deficient rats [6]; 130 pmol/day for 7 days): 5.3 ± 0.4 S/M; bone calcium mobilization, in words (vitamin D-deficient rats [7]; chronic 7 days): extremely strong bone calcium mobilization; bone calcium mobilization activity relative to 1,25-(OH)2D3 (native hormone) (vitamin D-deficient rats [7]; chronic 7 days, for the 20(S) compound at 130 pmol/day): 10-100 times |
| C=C1/C(=C\C=C2/CCC[C@]3(C)[C@@H]([C@H](C)CCCC(C)(C)O)CC[C@@H]23)C[C@@H](O)C[C@@H]1O [1,25-(OH)2D3, 1α,25-dihydroxyvitamin D3, reference compound] | – | – | – | 6.3 ± 0.2^c | 5.0 ± 0.4^c S/M | – | 5.8 ± 0.3 | 5.7 ± 0.2 | 6.2 ± 0.4 | expected elevation | 13.8 | 7.2 ± 0.5 | Serum Ca (mean ± SEM) [1, 12]: 5.6 ± 0.2^c; Ca Transport S/M (mean ± SEM) [2, 12]: 7.2 ± 0.6^c S/M; HL-60 Differentiation ED50 (HL-60 cells; listed as 1α,25-(OH)2D3): 4 nM |
| C=C1[C@H](O)CC(=C/C=C2\CCC[C@]3(C)[C@@H]([C@@H](C)CCCC(C)(C)O)CC[C@@H]23)C[C@H]1O [2-Methylene-19-Nor-20(S)-1,25-(OH)2D3, 20(S)-1α,25-dihydroxy-2-methylene-19-nor-vitamin D3] | – | – | – | – | – | – | 5.5 ± 0.6 | 8.0 ± 0.1 | 4.6 ± 0.7 | no significant change | 13.8 ± 0.5 | 14.4 ± 0.6 | induction of differentiation of HL-60 cells to the monocyte, in words (HL-60 cells): extremely potent; Intestinal Calcium Transport (S/M) (vitamin D-deficient rats [6]; 130 pmol/day for 7 days): 5.7 ± 0.8 S/M; Serum Calcium (vitamin D-deficient rats [7]; 260 pmol/day for 7 days, listed as 2-methylene-19-nor-20(S)-1,25-(OH)2D3): 14 mg/100 ml; bone calcium mobilization, in words (vitamin D-deficient rats [7]; chronic 7 days): most potent compound tested |
| C=C1[C@H](O)CC(=C/C=C2\CCC[C@@]3(C)C2CCC3[C@@H](C)CCCC2(O)CCCC2)C[C@H]1O (stereo partly drawn) [Compound 47, 20(S)-1α,25-dihydroxy-26,27-dimethylene-2-methylene-19-norvitamin D3] | 2.7 | 3.1 | 0.01 | – | – | 0.036 | – | – | – | – | – | – | Serum Ca (mean ± SEM) [1, 8]: 5.4 ± 0.2^d^^1; Serum Ca (mean ± SEM) [1, 9]: 6.4 ± 0.2^d^^2; Ca Transport S/M (mean ± SEM) [2, 8]: 5.6 ± 0.6^d^^1 S/M; Ca Transport S/M (mean ± SEM) [2, 9]: 5.3 ± 0.5^d^^2 S/M |

Source: patent publication US6696431B2, “26,27-homologated-20-EPI-2-alkylidene-19-nor-vitamin D compounds” (Wisconsin Alumni Research Foundation, priority 1997, dated 2004)
